Test results: patent US9758529B2, “Fused dihydro-4H-pyrazolo[5,1-C][1,4]oxazinyl compounds and analogs for treating CNS disorders” (Sunovion Pharmaceuticals Inc., priority 2015, dated 2017)
Where a name gives a salt, the structure may show the parent alone.

System: mice
Test: Neuropharmacological Assay (SmartCube)
Format: in vivo
Conditions: i.p. 15 min before behavioral test; 3 doses, most efficacious dose(s) presented
Description: Neurosci. […] As reported in Roberds, because psychiatric diseases generally result from disorders of cell-cell communication or circuitry, intact systems are useful in detecting improvement in disease-relevant endpoints. These endpoints are typically behavioral in nature, often requiring human observation and interpretation. To facilitate testing of multiple compounds for behavioral effects relevant to psychiatric disease, PsychoGenics, Inc. (Tarrytown, N.Y., “PGI”) developed SmartCube™, an automated system in which behaviors of compound-treated mice are captured by digital video and analyzed with computer algorithms. […] PGI Analytical Systems uses data from SmartCube™ to compare the behavioral signature of a test compound to a database of behavioral signatures obtained using a large set of diverse reference compounds. (The composition of the database as well as validation of the method is further described in Roberds). In this way, the neuropharmacological effects of a test compound can be predicted by similarity to major classes of compounds, such as antipsychotics, anxiolytics and antidepressants.
The SmartCube™ system produces an activity signature indicating the probability that the activity of the test compound at the administered dose matches a given class of neuropharmacological agents. (See, e.g., Roberds, FIGS. 2 and 3). The test compound is simultaneously compared against multiple classes of agents; thus, a separate probability is generated for each behavioral effect measured (e.g., anxiolytic activity, analgesic activity, etc.). In Table 2 and 2B, these probabilities are reported for each behavioral effect measured as follows:
where LOQ is the limit of quantification.
Provided compounds were dissolved in a mixture of Pharmasolve™ (N-methyl-2-pyrrolidone), polyethylene glycol and propylene glycol, and were injected i.p. 15 min. before the behavioral test. For each compound, injections were administered at 3 different doses. For each behavioral effect measured, results for the most efficacious dose(s) are presented.

Compound	AD: ADHD (probability of class match)	AG: analgesic (probability of class match)	AX: anxiolytic (probability of class match)	CE: cognitive enhancer (probability of class match)	DP: anti-depressant (probability of class match)	HA: hallucinogen (probability of class match)	MS: mood stabilizer (probability of class match)	PS: anti-psychotic (probability of class match)	SD: sedative hypnotic (probability of class match)	UN: uncharacterized CNS activity (probability of class match)	XG: anxiogenic (probability of class match)
CN(C)CC1OCCn2nc3ccc(F)cc3c21.Cl (stereo not drawn) [Compound 8, 1-(9-fluoro-3,4-dihydro-1H-[1,4]oxazino[4,3-b]indazol-1-yl)-N,N-dimethylmethanaminium chloride]	+ (LOQ≦ + <5%)	++ (5%≦ ++ <25%)	++ (5%≦ ++ <25%)	++ (5%≦ ++ <25%)	+++ (25%≦ +++ <50%)	+ (LOQ≦ + <5%)	+ (LOQ≦ + <5%)	++ (5%≦ ++ <25%)	+ (LOQ≦ + <5%)	+ (LOQ≦ + <5%)	++ (5%≦ ++ <25%)
Cl.NCC1OCCn2nc3ccc(F)cc3c21 (stereo not drawn) [Compound 9, (9-fluoro-3,4-dihydro-1H-[1,4]oxazino[4,3-b]indazol-1-yl)methanaminium chloride]	++ (5%≦ ++ <25%)	++ (5%≦ ++ <25%)	+ (LOQ≦ + <5%)	++ (5%≦ ++ <25%)	++ (5%≦ ++ <25%)	+ (LOQ≦ + <5%)	+ (LOQ≦ + <5%)	+ (LOQ≦ + <5%)	+ (LOQ≦ + <5%)	+++ (25%≦ +++ <50%)	+ (LOQ≦ + <5%)
CNCC1OCCn2nc3cc(F)ccc3c21 (stereo not drawn) [Compound 10, 1-(8-fluoro-3,4-dihydro-1H-[1,4]oxazino[4,3-b]indazol-1-yl)-N-methylmethanaminium]	+ (LOQ≦ + <5%)	++ (5%≦ ++ <25%)	++ (5%≦ ++ <25%)	+ (LOQ≦ + <5%)	++++ (50%≦ ++++)	+ (LOQ≦ + <5%)	+ (LOQ≦ + <5%)	++ (5%≦ ++ <25%)	+ (LOQ≦ + <5%)	+ (LOQ≦ + <5%)	++ (5%≦ ++ <25%)
CN(C)CC1OCCn2nc3cc(F)ccc3c21.Cl (stereo not drawn) [Compound 11, 1-(8-fluoro-3,4-dihydro-1H-[1,4]oxazino[4,3-b]indazol-1-yl)-N,N-dimethylmethanaminium]	+ (LOQ≦ + <5%)	+ (LOQ≦ + <5%)	+ (LOQ≦ + <5%)	+ (LOQ≦ + <5%)	+++ (25%≦ +++ <50%)	+ (LOQ≦ + <5%)	+ (LOQ≦ + <5%)	++ (5%≦ ++ <25%)	++ (5%≦ ++ <25%)	+ (LOQ≦ + <5%)	+ (LOQ≦ + <5%)
Cl.NCC1OCCn2nc3cc(F)ccc3c21 (stereo not drawn) [Compound 12, (8-fluoro-3,4-dihydro-1H-[1,4]oxazino[4,3-b]indazol-1-yl)methanaminium]	+ (LOQ≦ + <5%)	+ (LOQ≦ + <5%)	+ (LOQ≦ + <5%)	+ (LOQ≦ + <5%)	+ (LOQ≦ + <5%)	+ (LOQ≦ + <5%)	+ (LOQ≦ + <5%)	+ (LOQ≦ + <5%)	+ (LOQ≦ + <5%)	+ (LOQ≦ + <5%)	+ (LOQ≦ + <5%)
c1ccc2c3n(nc2c1)CCOC3[C@@H]1CCCN1 (stereo partly drawn) [Compound 13, 1-((S)-pyrrolidin-2-yl)-3,4-dihydro-1H-[1,4]oxazino[4,3-b]indazole hydrochloride]	+ (LOQ≦ + <5%)	+++ (25%≦ +++ <50%)	++ (5%≦ ++ <25%)	++ (5%≦ ++ <25%)	++ (5%≦ ++ <25%)	+ (LOQ≦ + <5%)	++ (5%≦ ++ <25%)	+ (LOQ≦ + <5%)	+ (LOQ≦ + <5%)	+ (LOQ≦ + <5%)	+ (LOQ≦ + <5%)
CN1CCC[C@H]1C1OCCn2nc3ccccc3c21 (stereo partly drawn) [Compound 14, 1-((S)-1-methylpyrrolidin-2-yl)-3,4-dihydro-1H-[1,4]oxazino[4,3-b]indazole hydrochloride]	+ (LOQ≦ + <5%)	+ (LOQ≦ + <5%)	+++ (25%≦ +++ <50%)	++ (5%≦ ++ <25%)	++ (5%≦ ++ <25%)	+ (LOQ≦ + <5%)	+ (LOQ≦ + <5%)	++ (5%≦ ++ <25%)	+ (LOQ≦ + <5%)	+ (LOQ≦ + <5%)	+ (LOQ≦ + <5%)
NCC1OCCn2nc3ccccc3c21 (stereo not drawn) [Compound 15, (3,4-dihydro-1H-[1,4]oxazino[4,3-b]indazol-1-yl)methanamine]	++++ (50%≦ ++++)	++ (5%≦ ++ <25%)	+ (LOQ≦ + <5%)	+ (LOQ≦ + <5%)	++ (5%≦ ++ <25%)	+ (LOQ≦ + <5%)	+ (LOQ≦ + <5%)	+ (LOQ≦ + <5%)	+ (LOQ≦ + <5%)	+ (LOQ≦ + <5%)	+ (LOQ≦ + <5%)
c1ccc2c3n(nc2c1)CCOC3CNC1CCC1 (stereo not drawn) [Compound 16, N-((3,4-dihydro-1H-[1,4]oxazino[4,3-b]indazol-1-yl)methyl) cyclobutanamine]	+ (LOQ≦ + <5%)	+ (LOQ≦ + <5%)	+ (LOQ≦ + <5%)	+ (LOQ≦ + <5%)	+ (LOQ≦ + <5%)	+ (LOQ≦ + <5%)	+ (LOQ≦ + <5%)	+ (LOQ≦ + <5%)	+ (LOQ≦ + <5%)	+ (LOQ≦ + <5%)	+ (LOQ≦ + <5%)
